How the values were obtained:
MCF7 (breast carcinoma) = experiment: Cell viability in solid cancer cells, WST assay, MCF7; format: cell-based, human; details: MCF7, 1 to 30 μM, 6 hours
Description: (§1) To confirm the possibility of use as a therapeutic agent for solid cancer, A549 cell line obtained from a […] with lung carcinoma, Hela cell line obtained from a person with cervix adenocarcinoma, HepG2 cell line obtained from a child with hepatocellular carcinoma, MCF7 cell line obtained from a person with breast adenocarcinoma, and Beas-2B cell line obtained from a normal lung for comparison with solid cancer cell line were used.
(§2) The A549 (lung carcinoma), Hela (cervix adenocarcinoma), HepG2 (hepatocellular carcinoma), MCF7 (breast carcinoma), and Beas-2B (normal lung) cell lines were used in DMEM medium containing 10% FBS, subcultured once every 2 days in an incubator under conditions of 37° C. and 5% CO2 and used in the experiment.
(§3) A549 (lung carcinoma), Hela (cervix adenocarcinoma), HepG2 (hepatocellular carcinoma), MCF7 (breast carcinoma), and Beas-2B (normal lung) cells cultured in Example 6-1 were inoculated into a 96-well plated at 1×10^4 cells/well, and then for the stabilization of cells, the cells were cultured in an incubator at 37° C. and 5% CO2 for 16 hours or more. Subsequently, among the compounds synthesized in Example 1, the compounds 1, 10 and 72 were treated at a concentration of 1 to 30 μM, and then cultured for 6 hours. At this time, DMSO and β-lapachone were used as the control group. After 4 hours of incubation, 10 μl of WST solution was added to each cell, the reaction was carried out for 2 hours, and the absorbance was measured at 450 nm with a multi-scan machine. The cell viabilities of A549 (lung carcinoma), Hela (cervix adenocarcinoma), HepG2 (hepatocellular carcinoma) and MCF7 (breast carcinoma) cells are shown in Table 4 and FIG. 6 below.

[1] = test system: HepG2 (hepatocellular carcinoma); experiment: Cell viability in solid cancer cells, WST assay, HepG2; format: cell-based, human; details: HepG2, 1 to 30 μM, 6 hours
Description: as §1, §2, §3

A549 (lung carcinoma) = experiment: Cell viability in solid cancer cells, WST assay, A549; format: cell-based, human; details: A549, 1 to 30 μM, 6 hours
Description: as §1, §2, §3

[2] = test system: Hela (cervix adenocarcinoma); experiment: Cell viability in solid cancer cells, WST assay, Hela; format: cell-based, human; details: 1 to 30 μM, 6 hours
Description: as §1, §2, §3

KG1α cells [3] = experiment: Apoptosis or cell necrosis in KG1α cells, FACS (Annexin-V/PI) and western blot; format: cell-based, human; details: 0-2 μM, 24 hours, FIG. 2
Method: (§4) Cell death was typically known as apoptosis or cell necrosis. Thus, in order to confirm whether the death of acute leukemia cells induced by the compound 1 of the present invention was due to apoptosis or cell necrosis, fluorescence activated cell sorting (FACS) and western blot were performed.
(§5) First, in order to conduct FACS, KG1α cells or HL60 cells cultured in […] were inoculated in a 6-well plate at 1×10^7 cells/well, and for the stabilization of cells, the cells were cultured in an incubator at 37° C. and 5% CO2 for 16 hours or more. Subsequently, the compound 1 was treated at concentrations of 0, 0.1, 0.5, 1 and 2 μM, respectively, and cultured for 24 hours, and then the cells were recovered and washed with cold PBS. Only 1×10^6 cells were taken and resuspended with PBS, and then stained with Annexin-V (green fluorescence), which increases during apoptosis, and Pi (propidium iodide, red fluorescence), which […]. The degree of the two indicators were quantified by FACS, the FACS results for KG1α cells are shown in FIG. 2A, and the FACS results for HL60 cells are shown in FIG. 3A.
(§6) Next, in order to perform western blot, KG1α cells or HL60 cells cultured in Example 2-1 were inoculated into a 6-well plate at 1×10^7 cells/well. In order to stabilize the cells, the cells were cultured for 16 hours or more in an incubator at 37° C. and 5% CO2. […]

[4] = test system: acute myelogenous leukemia mouse model in which FLT3-ITD was overexpressed; experiment: Changes in monocyte cells in acute leukemia mouse model overexpressing FLT3-ITD; format: in vivo; details: 120 mg/kg in diet, 8 weeks, FACS, FIG. 4
Method: In order to confirm the change in the expression of the FLT3-ITD gene by Compound 1 of the present invention, peripheral blood and spleen were collected after 8 weeks from the animals of an experimental group in which Compound 1 of the present invention was mixed and administered in a diet at a concentration of 120 mg/kg using a mouse (jackson lab) that systemically overexpressed FLT3-ITD, and a control group to which only a solvent was administered (untreated group).
In the case of peripheral blood, cold 1×PBS was added to a small amount of blood, centrifuged, washed, to which RBC lysis buffer was added and reacted for 5 minutes at room temperature to remove red blood cells. […] The antibodies were reacted on ice at a ratio of 1:200 for 20 minutes, washed with 1×PBS, then resuspended with 1×PBS containing 1% FBS, and quantified by FACS, and shown in FIG. 4A.
In the case of the spleen, the cells were crushed on a mesh having a 40 μm hole, separated into single cells, and then washed with cold 1×PBS to which RBC lysis buffer was added and reacted at room temperature for 5 minutes to remove red blood cells. […] The antibodies were reacted on ice at a ratio of 1:200 for 20 minutes, washed with 1×PBS, resuspended in 1×PBS containing 1% FBS, and quantified by FACS, and shown in FIGS. 4B and 4C.

BCR-ABL fusion gene = experiment: Expression level of BCR-ABL fusion gene in K562 cells, western blot; format: cell-based, human; details: 0.5-2.5 μM, 6 hours, FIG. 5
Method: The BCR-ABL fusion gene, existing only in chronic myelogenous leukemia, generated and transmitted continuous cell growth signals to induce the growth of cancer cells. Thus, after chronic myeloid leukemia cells were treated with the compound of the present invention, western blot was used to confirm whether the expression level of the BCR-ABL fusion gene was reduced.
First, the K562 cells cultured in Example 4-1 were inoculated into a 60 mm plate at 5×10^6 cells/well, and then for the stabilization of cells, the cells were cultured in an incubator at 37° C. and 5% CO2 for 16 hours or more. The, the compound 1 was treated at concentrations of 0.5, 1, 1.5, 2 and 2.5 μM, respectively, and cultured for 6 hours, and then the cells were recovered. A protein extraction buffer (RIPA buffer) was added to the cells obtained in the above process, and reacted on ice for 30 minutes to break the cell membrane, which was centrifuged to remove a supernatant, and then the protein was extracted. The extracted protein was developed by electrophoresis using SDS-PAGE, and then transferred to the PVDF membrane. Then, the antibody related to the BCR-ABL fusion gene was reacted, and then the amount of the protein was confirmed using the ECL buffer, and Western blot results for the K562 cell line are shown in FIG. 5.

[5] = test system: A549, Hela, HepG2, MCF7 and Beas-2B cells; experiment: Cell viability WST assay, all solid cancer and normal lung lines taken together; format: cell-based, human; details: 6 hours
Description: as §1, §2, §3

C57BL/6 mice = experiment: Acute toxicity experiment, mortality in mice; format: in vivo; details: 120 mg/kg orally, 24 hours after administration
Method: This experiment was conducted to examine the acute toxicity to the animal body acutely (within 24 hours) when the compound 1 of the present invention was ingested in excess in a short period of time, and to determine the mortality rate. 20 C57BL/6 mice, which are common mice, were prepared, and ten mice were assigned to each group. Only 0.1% SLS (sodium lauryl sulfate) was administered to the control group, and the compound 1 was orally administered to the experimental group at a concentration of 120 mg/kg, respectively. As a result of examining each mortality rate 24 hours after administration, both the control group and the experimental group to which the compound 1 was administered survived.

U937 cells = experiment: Cell viability of U937 cells, WST-1; format: cell-based, human; details: 24 hours, WST-1, FIG. 1B
Description: (§7) The constructed cell lines were also diverse. Thus, in order to confirm the applicability to a wide range of therapeutic agents that are not therapeutic agents for specific types of acute leukemia, in the present invention, KG1α cells constructed by selecting only cells having a stem cell phenotype from KG1 cells, which are cell lines obtained from a person with acute myelogenous leukemia, were used. HL60 cells, which are cell lines obtained from a person with acute promyelocytic leukemia, and U937 cells, which are cell lines obtained from a person with histiocytic lymphoma, were used.
(§8) KG1α and HL60 cells were cultured in IMDM medium containing 20% FBS (fetal bovine serum), and U937 cells were cultured in RPMI 1640 medium containing 10% FBS. All cells were cultured in an incubator under conditions of 37° C. and 5% CO2, and subcultured once every 2 or 3 days and used in the experiment.
(§9) The HL60 cells or U937 cells cultured in Example 2-1 were inoculated into a 96-well plate at 1×10^5 cells/well, and then for the stabilization of cells, the cells were cultured in an incubator at 37° C. and 5% CO2 for 16 hours or more. Subsequently, the compound 1 synthesized in Example 1 was treated at concentrations of 0.1, 0.5 and 1 μM, respectively, and reacted for 24 hours. […] The absorbance was then measured at 450 nm with a multi-scan machine.

K562 cells = experiment: Cell viability in chronic leukemia K562 cells, WST assay; format: cell-based, human; details: 0.1 to 5 μM
Method: K562 cells obtained from a person with chronic myeloid leukemia were cultured in an incubator under conditions of 37° C. and 5% CO2 using RPMI medium containing 10% FBS (fetal bovine serum), and subcultured once every two days and used in the experiment.
The K562 cells cultured in Example 4-1 were inoculated into a 96-well plate at 1×10^5 cells/well, and then, for the stabilization of cells, the cells were cultured in an incubator at 37° C. and 5% CO2 for 16 hours or more. Subsequently, among the compounds synthesized in Example 1, the compounds 1, 10, and 72 and 192 were treated at a concentration of 0.1 to 5 μM and then cultured for 4 hours. At this time, DMSO was used as a control group. After 4 hours of incubation, 10 μl of WST solution was added to each cell and then reacted for 2 hours.

HL60 cells [6] = experiment: Cell viability of HL60 cells, WST-1; format: cell-based, human; details: 24 hours, WST-1, FIG. 1A
Description: as §7, §8, §9

KG1α cells [7] = experiment: Cell viability in KG1α cells, WST assay; format: cell-based, human; details: 0.1 to 3 μM
Description: as §7, §8
KG1α cells are cells resistant to idarubicin and cytarabine, which are the therapeutic agents for acute myeloid leukemia, and are refractory AML cells. KG1α cells cultured in Example 2-1 were cultured into a 96-well plate at 1×10^5 cells/well, and then cultured in an incubator at 37° C. and 5% CO2 for 16 hours or more for the stabilization of cells. […] At this time, DMSO was used as a control group. After 24 hours, each cell was treated with 10 μl of WST solution, reacted for 2 hours, and then absorbance was measured at 450 nm with a multi-scan machine, and the cell viability of KG1α cells was confirmed as shown in Table 4 below.

HL60 cells [8] = experiment: Apoptosis or cell necrosis in HL60 cells, FACS (Annexin-V/PI) and western blot; format: cell-based, human; details: 0-2 μM, 24 hours, FIG. 3
Method: as §4, §5, §6

IC50 (MCF7 (breast carcinoma); Homo sapiens) | IC50 ([1]; Homo sapiens) | IC50 (K562 cells; Homo sapiens, K562, 4 h) | IC50 (A549 (lung carcinoma); Homo sapiens) | IC50 ([2]; Homo sapiens) | Structure (SMILES) | killing effect compared with β-lapachone [5] | IC50 (K562 cells; 4 hours) | IC50 (KG1α cells [7]; 24 hours) | IC50 (KG1α cells [7]; Homo sapiens, KG-1, 24 h) | also measured
 |  |  |  |  | CC1(C)CCC2=C(O1)c1ccccc1C(=O)C2=O [beta-rapacon, β-lapachone, reference compound] |  |  |  |  | IC50 (MCF7 (breast carcinoma)): 13.2 µM; IC50 [1]: 12.3 µM; IC50 (A549 (lung carcinoma)): 5 µM; IC50 [2]: 4.8 µM
14.1 µM | 12.1 µM | 0.9 µM | 5.5 µM | 7.7 µM | CCc1nc2c([nH]1)C(=O)C(=O)c1ccccc1-2 [compound 10] | killing effect similar to β-lapachone |  | 0.5 µM | 0.5 to 1 µM | 
12.5 µM | 12.6 µM | 1 to 2 µM | 6.5 µM | 9.1 µM | O=C1C(=O)c2[nH]c(C3CCCO3)nc2-c2ccccc21 (stereo not drawn) [compound 72] | killing effect similar to β-lapachone | 1.4 µM | 0.7 µM | 0.5 to 1 µM | 

Structure (SMILES) | IC50 (MCF7 (breast carcinoma); Homo sapiens) | IC50 ([1]; Homo sapiens) | IC50 (K562 cells; Homo sapiens, K562, 4 h) | IC50 (A549 (lung carcinoma); Homo sapiens) | IC50 ([2]; Homo sapiens) | killing effect compared with β-lapachone [5] | IC50 (K562 cells; 4 hours) | IC50 (KG1α cells [7]; 24 hours) | IC50 (KG1α cells [7]; Homo sapiens, KG-1, 24 h) | also measured
CC(C)c1nc2c([nH]1)C(=O)C(=O)c1ccccc1-2 [compound 1] | 14.4 µM | 10.1 µM | 1 to 2 µM | 5.1 µM | 4.6 µM | killing effect similar to β-lapachone | 1.6 µM | 0.5 µM | 0.5 to 1 µM | apoptosis or cell necrosis, KG1α cells (KG1α cells [3]): died due to apoptosis; suppression of proliferation of monocyte cells in peripheral blood and spleen [4]: excellent effect of suppressing the proliferation of monocyte cells; expression level of the BCR-ABL fusion gene (BCR-ABL fusion gene): decreased in a concentration-dependent manner; expression of phospho-bcr-abl (BCR-ABL fusion gene): also decreased; expression of phospho-stat5 (BCR-ABL fusion gene): also decreased; mortality, acute toxicity (C57BL/6 mice): survived; cell killing effect (cell viability), U937 cells (U937 cells): concentration-dependent cell killing effects; cell killing effect (cell viability), HL60 cells (HL60 cells [6]): concentration-dependent cell killing effects; apoptosis or cell necrosis, HL60 cells (HL60 cells [8]): both apoptosis and cell necrosis occurred

Source: patent US11684610B2, “Pharmaceutical composition including 1,2-naphthoquinone derivative compound for prevention or treatment of solid cancers or blood cancers” (YUNGJIN PHARM. CO., LTD., priority 2018, dated 2023)
